This assay concerns Jurkat A3 cells. The assay is described as follows: nsPEF-induced dissipation of mitochondria membrane potential (ΔΨm), TMRE flow cytometry. The class given is cell-based. How it is done:
Wildtype Jurkat T-lymphocytes (clone A3) were obtained from ATCC (Manassas, Va.) and cultured in RPMI 1640 medium (ATCC) including about 10% fetal bovine serum (FBS) (Atlanta Biologist). N1-S1 HCC cells were obtained from ATCC and cultured in Iscove's Modified Delbecco's Medium including FBS. Both cell lines were maintained in media including about 1% L-glutamine and about 1% penicillin and streptomycin. Cells were treated in cuvettes in cell culture media with nsPEFs using pulse generators, such as, for example as described in Transient features in nanosecond pulsed electric fields differentially modulate mitochondria and viability, PLoS One 7 (2012).
Loss in ΔΨm was determined by staining cells with either 2 μM JC-1 (5′,6, 6′-tetrachloro-1,1′,3,3′-tetraethylbenzimidazole-carbocyanideiodine, Molecular Probes, Eugene, Oreg., USA), where JC-1 changes from red to green when ΔΨm decreases (data not shown) or with 200 […] TMRE (tetramethylrhodamine ethyl ester, Immunochemistry Technologies LLC, Bloomington, Minn.), where TMRE red emissions decrease when ΔΨm decreases. To determine effects of Ca^2+ on ΔΨm, cells were pre-incubated with or without 20 μM BAPTA-AM and/or 5 mM EGTA for about 30 min before nsPEF treatment. The ΔΨm was determined about 10 min after treatment with nsPEFs. The TMRE red fluorescence was determined (10,000 cells) on a Becton Dickinson FacsAria flow cytometer. Although data shown are with TMRE, near identical results were obtained with JC-1. […]
Jurkat cells (A3 clone) were pre-incubated with TMRE (200 nM) for 20 min. […] Cell were then analyzed by flow cytometry 10 min after treatment for red (TMRE, ΔΨm) fluorescent and expressed as percent cells showing fluorescence (Y-axis) at each electric field strength (X-axis). In the presence of 3 mM Ca^2+ (absence of EGTA) there was an electric field-dependent decrease in cells expressing a high ΔΨm as indicated by decreases in TMRE fluorescence. […] Statistical significance was determined by the paired Student's t-test (p<0.05; n=3). […]

SMILES strings stand for the structures.

As for `CC(=O)OCOC(=O)CN(CC(=O)OCOC(C)=O)c1ccccc1OCCOc1ccccc1N(CC(=O)OCOC(C)=O)CC(=O)OCOC(C)=O` [BAPTA-AM], the “chelation of Ca2+ influx from the extracellular environment by BAPTA-AM alone” value (BAPTA-AM 20 μM alone, data not shown) is on record as “not sufficient to chelate influxes of Ca^2+ from the extracellular environment”. Regarding `O=C(O)CN(CCOCCOCCN(CC(=O)O)CC(=O)O)CC(=O)O` [EGTA], the “effect on nsPEF-induced loss of ΔΨm (percent cells showing TMRE fluorescence)” value (30 min pre-incubation, EGTA 5 mM, BAPTA-AM 20 μM, ten 60 ns pulses, all electric fields up to 60 kV/cm, 10 min after treatment) was “prevented losses in ΔΨm”. For the same compound, the “block of nsPEF-induced loss of ΔΨm at high electric field” value (electric field ≧40 kV/cm, EGTA 5 mM, BAPTA-AM 20 μM, ten 60 ns pulses) is given as “neither EGTA nor EGTA/BAPTA completely blocked loss of ΔΨm”.

The values are drawn from US20170304002A1, “ELECTROMANIPULATION OF PROTEINS USING NANOSECOND PULSED ELECTRIC FIELDS” (Old Dominion University, priority 2014, published 2017).
